The NIST ThermoML archive (doi:10.1021/acs.jced.8b00554)

Experiment: xn = mol fraction of the nth substance listed
Settings: Liquid, Vibrating tube method

CCCCCCCC [octane] + CCCO
mass density [kg/m3]
Settings	343.15 K	353.15 K
100 kPa, x2 = 0.1631	665.21	654.7
100 kPa, x2 = 0.2111	667.28	656.5
100 kPa, x2 = 0.3158	672.81	661.43
100 kPa, x2 = 0.4411	681.54	669.56
100 kPa, x2 = 0.7301	709.96	697.88
100 kPa, x2 = 0.8823	734.38	723.05
1000 kPa, x2 = 0.3158	–	663.09
1000 kPa, x2 = 0.8823	735.58	–
1010 kPa, x2 = 0.1631	–	656.23
1010 kPa, x2 = 0.2111	668.8	658.1
1010 kPa, x2 = 0.4411	682.72	671.12
1010 kPa, x2 = 0.7301	711.47	–
1010 kPa, x2 = 0.8823	–	724.42
1020 kPa, x2 = 0.1631	666.65	–
1020 kPa, x2 = 0.3158	674.29	–
1020 kPa, x2 = 0.7301	–	699.6
2000 kPa, x2 = 0.1631	667.79	–
2000 kPa, x2 = 0.4411	–	672.33
2010 kPa, x2 = 0.2111	669.99	659.4
2010 kPa, x2 = 0.3158	–	664.39
2010 kPa, x2 = 0.4411	683.85	–
2010 kPa, x2 = 0.8823	736.66	–
2020 kPa, x2 = 0.1631	–	657.52
2020 kPa, x2 = 0.3158	675.48	–
2020 kPa, x2 = 0.7301	712.6	700.81
2020 kPa, x2 = 0.8823	–	725.57
3000 kPa, x2 = 0.1631	–	658.76
3000 kPa, x2 = 0.2111	671.1	–
3000 kPa, x2 = 0.3158	676.61	–
3000 kPa, x2 = 0.4411	685.01	–
3000 kPa, x2 = 0.7301	–	702.03
3010 kPa, x2 = 0.3158	–	665.6
3010 kPa, x2 = 0.4411	–	673.58
3010 kPa, x2 = 0.7301	713.72	–
3010 kPa, x2 = 0.8823	–	726.72
3020 kPa, x2 = 0.1631	668.96	–
3020 kPa, x2 = 0.2111	–	660.63
3020 kPa, x2 = 0.8823	737.74	–
4000 kPa, x2 = 0.3158	677.77	–
4000 kPa, x2 = 0.8823	738.79	727.86
4010 kPa, x2 = 0.2111	–	661.88
4010 kPa, x2 = 0.3158	–	666.84
4010 kPa, x2 = 0.4411	686.15	674.84
4010 kPa, x2 = 0.7301	714.83	703.25
4020 kPa, x2 = 0.1631	670.09	659.99
4020 kPa, x2 = 0.2111	672.25	–
5000 kPa, x2 = 0.2111	–	663.08
5000 kPa, x2 = 0.4411	–	676.07
5000 kPa, x2 = 0.7301	715.96	–
5010 kPa, x2 = 0.1631	671.22	661.2
5010 kPa, x2 = 0.3158	–	668.06
5010 kPa, x2 = 0.4411	687.28	–
5010 kPa, x2 = 0.7301	–	704.44
5010 kPa, x2 = 0.8823	739.88	–
5020 kPa, x2 = 0.2111	673.37	–
5020 kPa, x2 = 0.3158	678.9	–
5020 kPa, x2 = 0.8823	–	729.03
6000 kPa, x2 = 0.4411	–	677.27
6000 kPa, x2 = 0.7301	–	705.64
6010 kPa, x2 = 0.1631	672.33	–
6010 kPa, x2 = 0.3158	–	669.31
6010 kPa, x2 = 0.4411	688.39	–
6010 kPa, x2 = 0.8823	740.91	–
6020 kPa, x2 = 0.1631	–	662.41
6020 kPa, x2 = 0.2111	674.49	664.26
6020 kPa, x2 = 0.3158	680.02	–
6020 kPa, x2 = 0.7301	717.05	–
6020 kPa, x2 = 0.8823	–	730.16
7000 kPa, x2 = 0.7301	–	706.83
7000 kPa, x2 = 0.8823	741.99	731.28
7010 kPa, x2 = 0.1631	673.46	663.61
7010 kPa, x2 = 0.2111	675.59	665.47
7010 kPa, x2 = 0.4411	689.51	–
7010 kPa, x2 = 0.7301	718.15	–
7020 kPa, x2 = 0.3158	681.12	670.48
7020 kPa, x2 = 0.4411	–	678.5
8000 kPa, x2 = 0.2111	676.71	–
8000 kPa, x2 = 0.3158	682.22	–
8000 kPa, x2 = 0.8823	743	–
8010 kPa, x2 = 0.1631	674.54	664.82
8010 kPa, x2 = 0.3158	–	671.68
8010 kPa, x2 = 0.4411	690.61	679.69
8010 kPa, x2 = 0.7301	–	708
8020 kPa, x2 = 0.2111	–	666.69
8020 kPa, x2 = 0.7301	719.22	–
8020 kPa, x2 = 0.8823	–	732.4
9000 kPa, x2 = 0.1631	675.63	666
9000 kPa, x2 = 0.4411	691.72	–
9000 kPa, x2 = 0.7301	720.31	–
9010 kPa, x2 = 0.2111	677.8	667.86
9010 kPa, x2 = 0.3158	683.34	672.89
9010 kPa, x2 = 0.4411	–	680.87
9010 kPa, x2 = 0.7301	–	709.2
9010 kPa, x2 = 0.8823	744.04	–
9020 kPa, x2 = 0.8823	–	733.54
10000 kPa, x2 = 0.8823	–	734.63
10010 kPa, x2 = 0.1631	–	667.15
10010 kPa, x2 = 0.2111	678.85	669.02
10010 kPa, x2 = 0.3158	684.4	–
10010 kPa, x2 = 0.4411	692.81	–
10010 kPa, x2 = 0.8823	745.05	–
10020 kPa, x2 = 0.1631	676.71	–
10020 kPa, x2 = 0.7301	721.36	–
11000 kPa, x2 = 0.4411	693.87	–
11010 kPa, x2 = 0.2111	679.93	–
11010 kPa, x2 = 0.3158	685.49	–
11020 kPa, x2 = 0.1631	677.8	–
11020 kPa, x2 = 0.7301	722.39	–
11020 kPa, x2 = 0.8823	746.05	–
12000 kPa, x2 = 0.3158	686.55	–
12010 kPa, x2 = 0.2111	681	–
12010 kPa, x2 = 0.7301	723.42	–
12010 kPa, x2 = 0.8823	747.05	–
12020 kPa, x2 = 0.1631	678.83	–
12020 kPa, x2 = 0.4411	694.93	–
13000 kPa, x2 = 0.2111	682.04	–
13010 kPa, x2 = 0.3158	687.6	–
13010 kPa, x2 = 0.4411	695.99	–
13010 kPa, x2 = 0.8823	748.05	–
13020 kPa, x2 = 0.1631	679.88	–
13020 kPa, x2 = 0.7301	724.48	–
14000 kPa, x2 = 0.2111	683.07	–
14000 kPa, x2 = 0.7301	725.49	–
14000 kPa, x2 = 0.8823	749.02	–
14010 kPa, x2 = 0.1631	680.88	–
14010 kPa, x2 = 0.4411	697.01	–
14020 kPa, x2 = 0.3158	688.64	–
15000 kPa, x2 = 0.2111	684.09	–
15000 kPa, x2 = 0.8823	749.96	–
15010 kPa, x2 = 0.1631	681.89	–
15010 kPa, x2 = 0.3158	689.64	–
15010 kPa, x2 = 0.7301	726.47	–
15020 kPa, x2 = 0.4411	698	–
16000 kPa, x2 = 0.2111	685.06	–
16000 kPa, x2 = 0.3158	690.66	–
16000 kPa, x2 = 0.4411	699.01	–
16010 kPa, x2 = 0.1631	682.9	–
16010 kPa, x2 = 0.7301	727.46	–
16010 kPa, x2 = 0.8823	750.92	–
17000 kPa, x2 = 0.8823	751.86	–
17010 kPa, x2 = 0.1631	683.85	–
17010 kPa, x2 = 0.2111	686.08	–
17010 kPa, x2 = 0.3158	691.65	–
17010 kPa, x2 = 0.4411	699.99	–
17010 kPa, x2 = 0.7301	728.43	–
18000 kPa, x2 = 0.1631	684.83	–
18000 kPa, x2 = 0.7301	729.35	–
18010 kPa, x2 = 0.3158	692.6	–
18010 kPa, x2 = 0.4411	700.97	–
18020 kPa, x2 = 0.2111	687.03	–
18020 kPa, x2 = 0.8823	752.76	–
19000 kPa, x2 = 0.1631	685.78	–
19010 kPa, x2 = 0.3158	693.56	–
19010 kPa, x2 = 0.8823	753.68	–
19020 kPa, x2 = 0.2111	687.96	–
19020 kPa, x2 = 0.4411	701.92	–
19020 kPa, x2 = 0.7301	730.28	–
20000 kPa, x2 = 0.7301	731.24	–
20010 kPa, x2 = 0.1631	686.67	–
20010 kPa, x2 = 0.2111	688.89	–
20010 kPa, x2 = 0.3158	694.48	–
20010 kPa, x2 = 0.4411	702.85	–
20020 kPa, x2 = 0.8823	754.54	–
